{"source": "patent US9561201B2", "about": "“Therapeutic compounds” (Fibrotech Therapeutics Pty Ltd, priority 2006, dated 2017)", "key": {"[1]": {"assay": "Pilot study (toxicity assessment), 2 weeks oral gavage", "type": "in vivo, Sprague-Dawley (SD) rats", "conditions": "for ALT / Body weight / Plasma Creatinine / Plasma Urate: 2 weeks", "experimental": "A total of twenty male Sprague-Dawley (SD) rats weighing 200-250 g were randomised to either FT011 (Fibrotech Therapeutics Pty Ltd, Melbourne, Australia) or Tranilast (Pharm Chemical, Shanghai Lansheng Corporation, China) at the dose of 50 mg, 100 mg, 200 mg and 400 mg/kg/day by gavage twice daily (n=2-3 per group). A control group of animals were gavaged with vehicle (1% carboxy methyl cellulose). The study was conducted for 2 weeks. Animals were bled daily at one, four, and eight hours after oral gavage to measure the plasma concentration. Serum was also collected to assess renal and liver function at the end of the study (plasma creatine and urate, ALT and bilirubin). Rats were individually housed in metabolic cages at the end of the study, habituated for 2 to 3 hours, and urine collected over 24 hours. Animals continued to have free access to tap water and standard laboratory chow during this period. The biochemistry tests performed at the department of pathology, St Vincent's hospital. Major organs including lung, heart, liver, spleen and kidney were harvested and immersed fix with 10% neutral buffered formalin and then embedded paraffin for subsequent light microscope examination."}, "[2]": {"system": "neonatal SD rat cardiac fibroblasts", "assay": "TGF-β-stimulated fibrosis (proline incorporation) in neonatal cardiac fibroblasts (Example 4)", "type": "cell-based", "experimental": "Matrix synthesis may be stimulated by both angiotensin II or transforming growth factor beta (TGF-β).\nNeonatal SD rat cardiac fibroblasts (NCFs) were isolated from one-day-old pups with enzymatic digestion. NCFs were purified by percoll gradient and seeded with DMEM in the present of 1% antibiotic/antimycotic (AB/AM) and 10% fatal bovine serum (FBS). NCFs were then subcultured when they are about 80% confluence. The second passage of NCFs was used for the assays.\nNCFs were seeded at 25,000 cells/well in 12-well plates and incubated at 37° C. and 5% CO2 overnight in DMEM with 1% AB/AM and 10% FBS. Cells were then washed with DMEM and then the media replaced with DMEM/F12 with 1% AB/AM, 0.5% Bovine Serum Albumin (BSA) and Vitamin C, before being incubated at 37° C. and 5% CO2 for 24 hours.\nThe effect of FT011 on TGF-β- or angiotensin II-stimulated fibrosis in the neonatal SD rat cardiac fibroblasts was investigated."}, "[3]": {"system": "SD rats post myocardial infarction (LAD ligation)", "assay": "Myocardial infarct rats treated with FT011", "type": "in vivo", "experimental": "Twenty rats underwent ligation of left anterior descending coronary artery (LAD) to induce anterior myocardial infarction (MI). Briefly, surgery performed under aseptic conditions on a heated table (37° C.) to maintain body warmth during the course of the procedure. The chest swabbed with chlorhexidine in 70% ethanol to disinfect the area. An incision made into the skin to the left of the sternum and the underlying muscle layers blunt dissected. A thoracotomy performed through the fourth to fifth intercostal space and the ribs held open using retractors to enable access to the heart. The pericardial sac surrounding the heart torn open and a 6-0 prolene suture used to ligate the LAD immediately. Visible blanching and hypokinesis of the anterior wall of the left ventricle and swelling of the left atrium are indicative of successful ligation. The control groups (sham+vehicle, sham+FT011) underwent a sham operation consisting of the same procedure except that the suture passed through the myocardium beneath the LAD without ligation.\nEchocardiography was performed on all animals 2 days post surgery and randomised to sham and MI groups. Animals were re-randomised at day 7 post surgery (10 animal each) to receive: vehicle or FT011 (100 mg/kg bid gavage). Every week, systolic blood pressure (SBP) was determined in preheated conscious rats via tail-cuff plethysmography using a non-invasive blood pressure (NIBP) controller and Powerlab (AD instruments, NSW, Australia). Cardiac function was assessed by echocardiography and cardiac catheterization prior to sacrificing at day 35 post surgery for all animals.\nEchocardiography, including Doppler examination, was performed using a Vivid 7 Dimension (GE Vingmed, Horten, Norway) echocardiograph with a 10 MHz phased array probe. Electrocardiographic data were acquired simultaneously. End-diastole was defined as the peak of the R wave, and end-systole was defined as the end of the T wave.\nAnimals were anaesthetized with pentobarbitone sodium 60 mg/kg i.p. injection. Animals underwent echocardiographic interrogation in the left recumbent position. M-mode echocardiography was performed using a parasternal short axis view at the level of the papillary muscles. Left ventricular posterior (LVPW) and anterior wall thickness (LVAW) were obtained during diastole (d) and systole (s), as were the left ventricular internal diameter at end-diastole (LVIDd) and end-systole (LVIDs). From the para-sternal short axis view, the end diastolic and end systolic cross sectional blood pool areas were measured. Fractional area change (FAC) was then calculated according to the formulae: FAC=[(end-diastolic area-end-systolic area)/end-diastolic area]*100.\nThe apical 4-chamber view was used to assess early and late transmitral peak diastolic flow velocity (E and A waves), using pulsed wave Doppler with a sample volume of 2 mm placed at the tips of the mitral valve leaflets. All Doppler spectra were recorded for 10 cardiac cycles at a sweep speed of 200 mm/s. All parameters were assessed using an average of three beats, and calculations were made in accordance with the American Society of Echocardiography guidelines. All data were acquired and analyzed by a single blinded observer using EchoPAC (GE Vingmed) offline processing.\nPost echocardiography, animals were placed on a warming pad (37° C.), intubated using a 14 gauge catheter, and ventilated using positive pressure with a tidal volume of […] at 70 breaths per minute using room air. Animals were secured in a recumbent position and the right jugular vein was cannulated with 0.9% NaCl infused at 100 μL per hour. […] The right internal carotid was then identified and ligated cranially. A 2F miniaturized combined conductance catheter-micromanometer was inserted into the carotid artery to obtain aortic blood pressure, then advanced into the left ventricle until stable pressure volume (PV) loops were obtained."}, "[4]": {"system": "STZ diabetic (mRen-2)27 rats", "assay": "Diabetic (mRen-2)27 rats treated with FT011", "type": "in vivo", "conditions": "for GFR: 16 weeks", "quoted_text": "Forty six-week old female, heterozygous (mRen-2)27 rats (St. Vincent's Hospital Animal House, Melbourne, Australia) were assigned to receive either 55 mg/kg of STZ (Sigma, St. Louis, USA) diluted in 0.1 M citrate buffer, pH 4.5 or citrate buffer alone (non-diabetic) by tail vein injection following an overnight fast. […] Treatment commenced within 24 hours of STZ or citrate buffer injection.\nRats were individually housed in metabolic cages at 4, 8 12 and 16 weeks, habituated for 2 to 3 hours, and urine collected over 24 hours. […] After 24 hours in metabolic cages, an aliquot of urine (5 mL) was collected from the 24-hour urine sample and stored at −70° C. for subsequent analysis of albumin by radio-immunoassay, as previously performed [36]. Prior to sacrifice, the glomerular filtration rate (GFR) was determined by injecting a single shot of 99Tc-DTPA into the tail vein and sampling the blood after 43 minutes, as previously described [37].\nRats were anaesthetised (Nembutal 60 mg/kg body wt i.p. Boehringer-Ingelheim, Australia). […] Kidneys were excised, decapsulated, sliced transversely, half of the kidney snap frozen for tissue RNA assay and other half immersed fix with formalin and paraffin-embedded for subsequent light microscopic evaluation.\nHistopathological changes in kidney and heart were assessed in a masked protocol.\nIn 4 μm kidney sections stained with PAS, 150 to 200 glomeruli from rats were examined in a masked protocol. […] A glomerulosclerotic index (GSI) was then calculated using the Formula (4):\nTo assess the tubulointerstitial fibrosis in kidney sections were stained with modified Masson's trichrome. Briefly, 5 random non-overlapping fields from 10 rats per group were captured and digitised using a BX50 microscope attached to a Fujix HC5000 digital camera. Digital images were then loaded onto a Pentium III IBM computer as described as above. An area of red in heart and blue in kidney on picrosirius red and trichrome-stained section, respectively, were selected for its color range and the proportional area of tissue with this range of color was then quantified. Calculation of the proportional area stained red and blue (matrix) was then determined using image analysis (AIS, Analytical imaging Station Version 6.0, Ontario, Canada) [37, 39]."}, "Mesangial cells": {"system": "Mesangial cells", "assay": "PDGF stimulated matrix synthesis (proline incorporation) in mesangial cells (Example 3)", "type": "cell-based, rat", "from_the_text": "Matrix synthesis may be stimulated by platelet derived growth factor (PDGF)."}, "[5]": {"conditions": "MI rats, 100 mg/kg bid gavage from day 7, day 35 post surgery"}, "[6]": {"conditions": "MI rats, 100 mg/kg bid gavage, echocardiography"}, "[7]": {"conditions": "MI rats, 100 mg/kg bid gavage, listed as FT011, 100 mg/kg"}, "[8]": {"conditions": "diabetic rats, 100 mg/kg bid gavage"}}, "note": "“Also recorded” adds a separate entry of the source."}
{"smiles": "C#CCOc1ccc(/C=C/C(=O)Nc2ccccc2C(=O)O)cc1OC", "note": "[Analogue 11]", "values": [{"measurement": "ALT", "setting": "[1]; 50 mg/kg/day gavage", "value": "41 ± 1"}, {"measurement": "Body weight", "setting": "[1]; 50 mg/kg/day gavage", "value": "313 ± 24", "unit": "Gram"}, {"measurement": "Plasma Creatinine", "setting": "[1]; 50 mg/kg/day gavage", "value": "38 ± 2", "unit": "µmol/L"}, {"measurement": "Plasma Urate", "setting": "[1]; 50 mg/kg/day gavage", "value": "<0.09", "unit": "mmol/L"}, {"measurement": "ALT", "setting": "[1]; 100 mg/kg/day gavage", "value": "44 ± 2"}, {"measurement": "Body weight", "setting": "[1]; 100 mg/kg/day gavage", "value": "308 ± 22", "unit": "Gram"}, {"measurement": "Plasma Creatinine", "setting": "[1]; 100 mg/kg/day gavage", "value": "39 ± 0.5", "unit": "µmol/L"}, {"measurement": "Plasma Urate", "setting": "[1]; 100 mg/kg/day gavage", "value": "<0.09", "unit": "mmol/L"}, {"measurement": "ALT", "setting": "[1]; 200 mg/kg/day gavage", "value": "36 ± 0.5"}, {"measurement": "Body weight", "setting": "[1]; 200 mg/kg/day gavage", "value": "301 ± 8", "unit": "Gram"}, {"measurement": "Plasma Creatinine", "setting": "[1]; 200 mg/kg/day gavage", "value": "37 ± 0.6", "unit": "µmol/L"}, {"measurement": "Plasma Urate", "setting": "[1]; 200 mg/kg/day gavage", "value": "<0.09", "unit": "mmol/L"}, {"measurement": "ALT", "setting": "[1]; 400 mg/kg/day gavage", "value": "32 ± 4.4"}, {"measurement": "Body weight", "setting": "[1]; 400 mg/kg/day gavage", "value": "264 ± 29", "unit": "Gram"}, {"measurement": "Plasma Creatinine", "setting": "[1]; 400 mg/kg/day gavage", "value": "36 ± 3.9", "unit": "µmol/L"}, {"measurement": "Plasma Urate", "setting": "[1]; 400 mg/kg/day gavage", "value": "<0.09", "unit": "mmol/L"}, {"measurement": "level of FT011 measured in plasma", "setting": "[1]; following gavage, 50-400 mg/kg/day", "value": "increased in a dose dependent manner"}, {"measurement": "level of FT011 measured in urine", "setting": "[1]; rats treated with FT011, 24 h urine", "value": "significant level"}, {"measurement": "TGF-β-stimulated fibrosis (proline incorporation)", "setting": "[2]", "value": "inhibited"}, {"measurement": "Myocardial infarct size, treated versus untreated MI groups", "setting": "[3]; 100 mg/kg bid gavage, P=0.36", "value": "similar"}, {"measurement": "LVED", "setting": "[3]; MI rats, 100 mg/kg bid gavage", "value": "0.53 ± 0.04", "unit": "mL"}, {"measurement": "LVES", "setting": "[3]; MI rats, 100 mg/kg bid gavage", "value": "0.15 ± 0.02", "unit": "mL"}, {"measurement": "LV/BW", "setting": "[3]; [5]", "value": "0.22 ± 0.004"}, {"measurement": "RV/BW", "setting": "[3]; [5]", "value": "0.048 ± 0.002"}, {"measurement": "adverse LV remodelling on echocardiography (LVIDd, LVIDs, FAC, E:A ratio, deceleration time)", "setting": "[3]; MI rats, 100 mg/kg bid gavage, 5 weeks post MI", "value": "significantly attenuated"}, {"measurement": "Deceleration time", "setting": "[3]; [6]", "value": "38.64 ± 1.2", "unit": "ms"}, {"measurement": "E:A ratio", "setting": "[3]; [6]", "value": "2.00 ± 0.26"}, {"measurement": "FAC %", "setting": "[3]; [6]", "value": "42.69 ± 2.3", "unit": "%"}, {"measurement": "LVIDd", "setting": "[3]; [6]", "value": "0.92 ± 0.03", "unit": "cm"}, {"measurement": "LVIDs", "setting": "[3]; [6]", "value": "0.70 ± 0.03", "unit": "cm"}, {"measurement": "collagen subtype I and III immunostaining in non-infarct zone", "setting": "[3]; [7]", "value": "reduction in immunostaining; also recorded: attenuated"}, {"measurement": "infiltration of ED-1 positive macrophages in non-infarct zone", "setting": "[3]; [7]", "value": "reduction in macrophage number; also recorded: attenuated"}, {"measurement": "interstitial fibrosis in non-infarct zone (Masson's trichrome)", "setting": "[3]; [7]", "value": "marked reduction; also recorded: attenuated"}, {"measurement": "GFR", "setting": "[4]; diabetic rats + FT011 100 mg/kg bid gavage", "value": "5.90 ± 0.20", "unit": "mL/min"}, {"measurement": "extent of glomerulosclerosis (PAS-stained sections)", "setting": "[4]; [8]", "value": "reduction"}, {"measurement": "rise in albuminuria", "setting": "[4]; [8]", "value": "significantly attenuated"}, {"measurement": "tubular (tubulointerstitial) fibrosis (trichrome-stained sections)", "setting": "[4]; [8]", "value": "reduction"}, {"measurement": "GFR", "setting": "[4]; non-diabetic control rats + FT011 100 mg/kg bid gavage", "value": "3.63 ± 0.08", "unit": "mL/min"}, {"measurement": "PDGF-stimulated matrix synthesis (proline incorporation)", "setting": "Mesangial cells; 30 and 100 μM", "value": "inhibits"}, {"measurement": "potency at reducing proline incorporation compared with tranilast", "setting": "Mesangial cells; PDGF stimulation, 30 μM", "value": "more potent"}]}
